Data as given in ChEMBL document CHEMBL1201862, “PubChem BioAssay data set” (2004).
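Step 1: Grow cells in 96-well plates. Step 2: Expose to compound for 48 hours at 5 concentrations. Step 3: Interpolate endpoints linearly; if unreached, use highest concentration. GI50 = concentration required for 50% inhibition of growth.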 The source made the active and inactive calls. Rule as the data show it: active = GI50 up to about 1.1 µM and inactive = higher.

Experiments:
Assay in all cases: inhibition of tumour cell growth, NCI panel, 48 h
[1] = system: ACHN
[2] = system: SK-MEL-2
[3] = system: SF-268
[4] = system: SK-MEL-28
[5] = system: OVCAR-3
[6] = system: KM12
[7] = system: HOP-62
[8] = system: SNB-19
[9] = system: HL-60
[10] = system: UO-31
[11] = system: K562
[12] = system: 786-0
[13] = system: M14
[14] = system: OVCAR-5
[15] = system: RPMI-8226
[16] = system: Malme-3M
[17] = system: HCT-15
[18] = system: MDA-N
[19] = system: MDA-MB-231

| SMILES | GI50 [1] | GI50 [2] | GI50 [3] | GI50 [4] | GI50 [5] | GI50 [6] | GI50 [7] | GI50 [8] | GI50 [9] | GI50 [10] | GI50 [11] | GI50 [12] | GI50 [13] | GI50 [14] | GI50 [15] | GI50 [16] | GI50 [17] [µM] | GI50 [18] | GI50 [19] |
| --- | --- | --- | --- | --- | --- | --- | --- | --- | --- | --- | --- | --- | --- | --- | --- | --- | --- | --- | --- |
| CC(C)(C)C(=O)Cc1cc2c(cc1C(=O)O)S(=O)(=O)NC(C(C)(C)C)=C2 | > 100 µM (inactive) | > 100 µM (inactive) | > 100 µM (inactive) | > 100 µM (inactive) | > 100 µM (inactive) | > 100 µM (inactive) | > 100 µM (inactive) | > 100 µM (inactive) | > 100 µM (inactive) | > 100 µM (inactive) | > 100 µM (inactive) | > 100 µM (inactive) | > 100 µM (inactive) | > 100 µM (inactive) | > 100 µM (inactive) | > 100 µM (inactive) |  |  |  |
| CC1(C)N=C(Oc2ccccc2)n2nccc2N1 | > 100 µM (inactive) | > 100 µM (inactive) | > 100 µM (inactive) | > 100 µM (inactive) | > 100 µM (inactive) | > 100 µM (inactive) | > 100 µM (inactive) | > 100 µM (inactive) | > 100 µM (inactive) | > 100 µM (inactive) | 82.8 µM (inactive) | 59.4 µM (inactive) | 73.1 µM (inactive) | > 100 µM (inactive) | > 100 µM (inactive) | > 100 µM (inactive) | > 100 |  |  |
| O=C(CSc1nc2ccc(I)cc2c(=O)n1Cc1ccccc1)NN1C(=O)CCC1=O | 18.2 µM (inactive) | 47 µM (inactive) | 39.1 µM (inactive) | 61.4 µM (inactive) | 23.5 µM (inactive) | 37.2 µM (inactive) | 54.5 µM (inactive) | 85.3 µM (inactive) | 28.6 µM (inactive) |  | 33.3 µM (inactive) | 52.7 µM (inactive) | 79.8 µM (inactive) | > 100 µM (inactive) | 37.7 µM (inactive) |  | 22.5 | 83.4 µM (inactive) | 32.4 µM (inactive) |
| COC(=O)c1cc(C)n(NC(=O)OC(C)(C)C)c1C | > 100 µM (inactive) | > 100 µM (inactive) | > 100 µM (inactive) | > 100 µM (inactive) | > 100 µM (inactive) | > 100 µM (inactive) | > 100 µM (inactive) | > 100 µM (inactive) | > 100 µM (inactive) | > 100 µM (inactive) | > 100 µM (inactive) | > 100 µM (inactive) | > 100 µM (inactive) | > 100 µM (inactive) | > 100 µM (inactive) | > 100 µM (inactive) | > 100 |  |  |
| COc1ccc(C2S/C(=C\c3cc(OC)c(OC)c(OC)c3)C(=O)N2NC(=O)Cc2ccccc2)cc1 (stereo not given) | > 100 µM (inactive) | > 100 µM (inactive) | > 100 µM (inactive) | > 100 µM (inactive) |  | > 100 µM (inactive) | > 100 µM (inactive) |  | > 100 µM (inactive) | 48 µM (inactive) | > 100 µM (inactive) | > 100 µM (inactive) | > 100 µM (inactive) | > 100 µM (inactive) | > 100 µM (inactive) | > 100 µM (inactive) | > 100 |  |  |
| CC12CCCCC1C(=O)C2(Cl)Cl (stereo not given) | 2.51 µM (inactive) | 1.95 µM (inactive) | 2.7 µM (inactive) | 1.8 µM (inactive) | 1.77 µM (inactive) | 1.79 µM (inactive) | 1.6 µM (inactive) | 3.31 µM (inactive) | 1.76 µM (inactive) | 2.18 µM (inactive) | 1.83 µM (inactive) | 1.83 µM (inactive) | 2.03 µM (inactive) | 2.56 µM (inactive) | 1.31 µM (inactive) | 1.4 µM (inactive) | 3.35 |  |  |
| Cn1ncc2cc3c(Nc4ccc(Cl)cc4)cccc3nc21 | 15 µM (inactive) | 22.6 µM (inactive) | 15.8 µM (inactive) | 15.1 µM (inactive) | 12.7 µM (inactive) | 17.3 µM (inactive) | 15 µM (inactive) | 37.8 µM (inactive) | 11 µM (inactive) | 7.4 µM (inactive) | 20 µM (inactive) | 21.6 µM (inactive) | 18.8 µM (inactive) | > 10 µM (inactive) | 10.9 µM (inactive) | 23 µM (inactive) | 14.1 |  |  |
| O=c1[nH]c2cccccc-2c1-c1nc2ccccc2[nH]1 | 14.1 µM (inactive) | 24.3 µM (inactive) | 14.9 µM (inactive) | 20.3 µM (inactive) | > 10 µM (inactive) | 4.82 µM (inactive) | 39.8 µM (inactive) | 21.2 µM (inactive) | 36.6 µM (inactive) | 31.1 µM (inactive) | 34.5 µM (inactive) | 18.2 µM (inactive) | 44.3 µM (inactive) | > 100 µM (inactive) | 28.5 µM (inactive) | 21.3 µM (inactive) | 21.9 |  |  |
| CCCCN(CCCC)CC(C(=O)Nc1ccccc1)/C(C)=N\NC(=O)c1ccncc1 (stereo not given) | > 100 µM (inactive) |  | > 100 µM (inactive) | > 100 µM (inactive) | 64.7 µM (inactive) | > 100 µM (inactive) | > 100 µM (inactive) | > 100 µM (inactive) | 98.2 µM (inactive) | 28.5 µM (inactive) | > 100 µM (inactive) | > 100 µM (inactive) | > 100 µM (inactive) | > 100 µM (inactive) | > 100 µM (inactive) | > 100 µM (inactive) | > 100 |  |  |
| COc1ccccc1C(N)c1ccccc1 (stereo not given) | > 100 µM (inactive) |  | > 100 µM (inactive) | > 100 µM (inactive) | > 100 µM (inactive) | > 100 µM (inactive) | > 100 µM (inactive) | > 100 µM (inactive) | > 100 µM (inactive) | > 100 µM (inactive) | > 100 µM (inactive) | > 100 µM (inactive) | > 100 µM (inactive) | > 100 µM (inactive) | > 100 µM (inactive) | > 100 µM (inactive) | > 100 |  |  |
| C=CCN(N=O)C(=O)NCCCC(NC(C)=O)C(=O)NCc1ccccc1 (stereo not given) | > 100 µM (inactive) | > 100 µM (inactive) | > 100 µM (inactive) | > 100 µM (inactive) | > 100 µM (inactive) | > 100 µM (inactive) | > 100 µM (inactive) | > 100 µM (inactive) | > 100 µM (inactive) | > 100 µM (inactive) | > 100 µM (inactive) | > 100 µM (inactive) | > 100 µM (inactive) | > 100 µM (inactive) | > 100 µM (inactive) | > 100 µM (inactive) | > 100 |  |  |
| CC1C(c2ccc3c(c2)OCO3)c2cc3c(cc2OC1N1CCCC1)OCO3 (stereo not given) | 29.3 µM (inactive) | 31.3 µM (inactive) | 23.1 µM (inactive) | 37.1 µM (inactive) | 25.8 µM (inactive) | 37.7 µM (inactive) | 49.5 µM (inactive) | 20.9 µM (inactive) |  | 17.2 µM (inactive) | 24.4 µM (inactive) | 45.5 µM (inactive) | 25.5 µM (inactive) | 61.4 µM (inactive) | 29.2 µM (inactive) |  | 30 | 16.1 µM (inactive) |  |
| CCn1c(=O)nc2n(-c3ccccc3)c3ccccc3nc-2c1=O | 4.21 µM (inactive) | 25 µM (inactive) | 17.3 µM (inactive) | 32.8 µM (inactive) | 3.96 µM (inactive) | 31.3 µM (inactive) | 31.7 µM (inactive) | 23 µM (inactive) | 10.7 µM (inactive) | 35.7 µM (inactive) | 17.9 µM (inactive) | 27.9 µM (inactive) | 13.9 µM (inactive) | 29.3 µM (inactive) | 21.8 µM (inactive) | 16.3 µM (inactive) | 15.7 |  |  |
| NC(=O)c1csc(C2OC(COP(=O)(O)CP(=O)(O)OCC3OC(n4cnc5c(N)ncnc54)C(O)C3O)C(O)C2O)n1 (stereo not given) | > 100 µM (inactive) | > 100 µM (inactive) | > 100 µM (inactive) | > 100 µM (inactive) | > 100 µM (inactive) | > 100 µM (inactive) | > 100 µM (inactive) | > 100 µM (inactive) | > 100 µM (inactive) | > 100 µM (inactive) | 55.3 µM (inactive) | > 100 µM (inactive) | > 100 µM (inactive) | > 100 µM (inactive) | > 100 µM (inactive) | > 100 µM (inactive) | 78.3 |  |  |
| O=C(/C=C\c1ccccc1)N1CCc2ccccc2C1 | 38.2 µM (inactive) | 31.3 µM (inactive) | 49.7 µM (inactive) | 61 µM (inactive) |  | 36.5 µM (inactive) | > 100 µM (inactive) | 67.8 µM (inactive) | 29.8 µM (inactive) | 39 µM (inactive) | 19.4 µM (inactive) | 87.5 µM (inactive) | 60.5 µM (inactive) |  | 23.5 µM (inactive) |  | 55.8 |  | > 100 µM (inactive) |
| Cc1ccc(NC(=O)CCC(=O)C2CC(=O)CC/C2=N\NC(=O)c2cc3ccccc3cc2O)cc1C (stereo not given) | 18.9 µM (inactive) | 26.4 µM (inactive) | 17.3 µM (inactive) | 65 µM (inactive) | 14.8 µM (inactive) | 31.8 µM (inactive) | 43.4 µM (inactive) | 40.7 µM (inactive) | 4.35 µM (inactive) | 4.13 µM (inactive) | 8.18 µM (inactive) | 25.8 µM (inactive) | 25.8 µM (inactive) | 22 µM (inactive) | 25 µM (inactive) | 30.4 µM (inactive) | 14.7 |  |  |
| COc1ccc(C(=O)/C=C/c2ccc(OCCCOc3ccc(/C=C/C(=O)c4ccc(OC)c(OC)c4)cc3)cc2)cc1OC | > 100 µM (inactive) | > 100 µM (inactive) | > 100 µM (inactive) | > 100 µM (inactive) |  | > 100 µM (inactive) | > 100 µM (inactive) | > 100 µM (inactive) | > 100 µM (inactive) | > 100 µM (inactive) | > 100 µM (inactive) | > 100 µM (inactive) | > 100 µM (inactive) |  | > 100 µM (inactive) |  | > 100 | > 100 µM (inactive) | > 100 µM (inactive) |
